Results published in paper PMC6696413 (Molecules, 2019).
Where two headings read alike, the source gives them in different places.

Columns and labels:
Format in all cases: biochemical
acetylcholinesterase = acetylcholinesterase (Homo sapiens, UniProt P22303); test: biochemical
α-glucosidase = test: α-Glucosidase inhibitory activity experiment (PNPG, 405 nm); details: 96-well plate, PBS pH 7.4, 37 °C, PNPG substrate; acarbose positive control
Description: In a 96-well plate, group A was added 20 μL of 0.1 mol/L PBS (phosphate buffered saline (pH 7.4)), 20 μL of the sample (standard solution dissolved in DMSO to the concentration of 1.0 mg/mL) and 20 μL of α-glucosidase as a sample group (n = 3); Group B was added 40 μL of 0.1 mol/L PBS and 20 μL of the sample as the control group (n = 3); Group C was added 40 μL 0.1 mol/L PBS and 20 μL α-glucosidase as blank group (n = 3); after incubation for 15 min at 37 °C, then 2.5 mmol/L PNPG glycoside was added to each well and incubated at 37 °C. The reaction was stopped by adding 80 μL of a 0.2 mol/L Na2CO3 solution to each well after 15 min.

tyrosinase = test: Tyrosinase inhibitory activity experiment (L-tyrosine, 405 nm); details: 96-well plate, PBS, L-tyrosine substrate, 37 °C 30 min; kojic acid positive control
Description: In a 96-well plate, group A was added 80 μL of 0.1 mol/L PBS, 50 μL of solvent (solvent used to dissolve the sample: DMSO) and 50 μL of tyrosinase as a blank group (n = 2); group B was added 130 μL of 0.1 mol/L PBS and 50 μL of solvent as blank background group (n = 2); group C was added with 80 μL of 0.1 mol/L PBS, 50 μL of the sample (standard solution dissolved in DMSO to the concentration of 1.0 mg/mL) and 50 μL of tyrosinase as the experimental group (n = 2); group D were added 130 μL of 0.1 mol/L PBS and 50 μL of the sample as experimental background group (n = 2); finally, 20 μL of substrate (L-tyrosine) was added to each well to trigger the reaction, and the 96-well plate was further incubated at 37 °C.

[1] = 96-well plate, PBS, ACTI and DTNB, 37 °C 20 min, huperzine A positive control, read-out: Acetylcholinesterase inhibitory activity IC50 (converted)

acetylcholinesterase, sequence (P22303 32-614, species assumed): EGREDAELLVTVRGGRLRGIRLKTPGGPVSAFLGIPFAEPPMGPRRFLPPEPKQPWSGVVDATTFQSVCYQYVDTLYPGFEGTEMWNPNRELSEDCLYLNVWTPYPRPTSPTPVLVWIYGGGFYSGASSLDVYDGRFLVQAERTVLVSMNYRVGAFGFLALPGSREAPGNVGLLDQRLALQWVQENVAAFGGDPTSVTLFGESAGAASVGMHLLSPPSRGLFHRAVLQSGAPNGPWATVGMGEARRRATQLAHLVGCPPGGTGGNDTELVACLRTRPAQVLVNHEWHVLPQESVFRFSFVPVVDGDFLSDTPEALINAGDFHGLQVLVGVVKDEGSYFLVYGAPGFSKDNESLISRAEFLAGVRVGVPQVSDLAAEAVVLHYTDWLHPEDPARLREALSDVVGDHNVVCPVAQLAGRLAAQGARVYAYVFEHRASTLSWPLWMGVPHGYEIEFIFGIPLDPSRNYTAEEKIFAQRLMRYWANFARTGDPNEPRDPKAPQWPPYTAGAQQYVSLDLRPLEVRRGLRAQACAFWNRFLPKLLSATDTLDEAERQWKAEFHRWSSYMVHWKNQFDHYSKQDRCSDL

| SMILES | IC50 (acetylcholinesterase; [1]) | α-glucosidase activity inhibition IC50 (α-glucosidase) | Tyrosinase inhibitory activity IC50 (tyrosinase) | IC50 (acetylcholinesterase) |
| --- | --- | --- | --- | --- |
| CC(C)[C@@H](C)/C=C/[C@@H](C)[C@H]1CC[C@@H]2[C@]1(C)CC[C@H]1[C@]23C=C[C@]2(C[C@@H](O)CC[C@]12C)OO3 [Compound 8, ergosterol peroxide] | 1170 µM | 452.50 µg/mL | 202.37 µg/mL |  |
| OCC1OC(OC2C(CO)OC(OC3C(CO)OC(OC4(CO)OC(CO)C(O)C4O)C(O)C3O)C(O)C2O)C(O)C(O)C1O [Compound 12, O-α-D-glucopyranosyl-(1→4)-α-D-glucopyranosyl-(1→4)-α-D-glucopyranosyl-(1→2)-β-D-fructofuranoside] | 761 µM | 444.88 µg/mL | 1750.08 µg/mL |  |
| COC1OC(CNC2C(OC)OC(CO)C(O)C2O)C(O)C(O)C1O [Compound 11, α-D-Alt-p-OMe (N2-6) α-D-Gle-p-OMe] | 1400 µM | 318.44 µg/mL | 302.42 µg/mL |  |
| O=c1cc(-c2ccc(O)c(O)c2)oc2cc(O)cc(O)c12 [Compound 1, luteolin] |  |  | 1643.11 µg/mL | 1660 µM |
| C[C@@H]1O[C@@H](OC[C@H]2O[C@@H](Oc3c(-c4ccc(O)c(O)c4)oc4cc(O)cc(O)c4c3=O)[C@H](O)[C@@H](O)[C@@H]2O)[C@H](O)[C@H](O)[C@H]1O [Compound 7, rutin] |  |  |  | 806 µM |
| O=c1c(O)c(-c2ccc(O)cc2)oc2cc(O)cc(O)c12 [Compound 3, kaempferol] |  |  |  | 1760 µM |
| CC#CC#CC#CC#CC#CC(CO)O[C@@H]1O[C@H](CO)[C@@H](O)[C@H](O)[C@H]1O (stereo partly drawn) [Compound 10, 2-β-D-glucopyranosyloxy-1-hydroxytrideca-3,5,7,9,11-pentayne] | 1450 µM | 492.11 µg/mL |  |  |
